The subject of this experiment is HEK293E cells. The experiment is described as follows: Transient IgG expression, batch titer by ELISA, VPA concentration series (Example 1). It counts as cell-based, Human. To be noted: for Fold increase over control / Batch titer: IgG, day 5 after transfection; for Batch titer: 37° C. How it is done:
10 million suspension-adapted HEK293E cells were resuspended in 0.5 ml of Ex-Cell 293 HEK 293 serum-free medium with 4 mmol/l L-glutamine (Cat. No. 14571C-1000 M; Lot No. 6A0093; SAFC Biosciences, Lenexa, Kans., USA, “Ex-Cell” medium; note: “Ex-Cell” medium-as used herein-refers to a medium comprising 4 mmol/l L-glutamine) in a 50-ml filter tube each (TPP AG, Trasadingen, Switzerland; Cat. No. 87050, Lot 20050174). In a separate set, 10 million suspension-adapted CHO DG44 cells were resuspended in 0.5 ml of ProCHO5 serum-free medium with 4 mmol/[…] hypoxanthine and 0.194 g/l thymidine (BioWhittaker (Lonza), Belgium; Cat. No. BE12-[…]; Lot No. 7 MB0040; “ProCHO5” medium; note: “ProCHO5” medium-as used herein-refers to a medium comprising 4 mmol/[…] hypoxanthine and 0.194 g/l thymidine) in a 50-ml filter tube each (TPP AG, Trasadingen, Switzerland; Cat. No. 87050, Lot 20050174). Then 12.5 μg plasmid DNA at a concentration of 1 μg/μl was added in each tube with the following composition 50% (6.25 μg) p-LC (SEQ ID NO: 1) 50% (6.25 μg) p-HC (SEQ ID NO: 3). Plasmid p-LC comprises the genetic information for the production of the light chain of an IgG antibody, plasmid p-HC comprises the genetic information for the production of the heavy chain of an IgG antibody. The particular vector constructs used in the present invention can also be obtained from the inventors. The inventors can be contacted via e-mail at […]. Moreover, commercial services do exist that produce any desired nucleotide sequence even comprising several kilobase pairs including complete expression cassettes in plasmid backgrounds (e.g., Invitrogen, Carlsbad, USA; Geneart, Germany.) Thus, providing the genetic sequence information of the plasmids should enable one of ordinary skill in the art to order the plasmids of the present invention at one of the commercial services listed. After shortly mixing the DNA with the cells by gentle shaking, 25 μg of 25-kd linear polyethyleneimine (“PEI”; Polysciences, Eppelheim, Germany; [2]) were added at a concentration of 1 μg/μl to each of the tubes. After shortly mixing by gentle shaking, the filter tubes containing the cells together with the DNA and PEI were transferred into an orbital shaker (Kühner Shaker Cabinet ISF-4-W, “Kühner shaker”, Kühner AG, Birsfelden, Switzerland), and the cells were incubated for 4 hours at 37° C. in a 5% CO2 atmosphere under shaking at 180 rpm. After that time, 4.5 ml of Ex-Cell medium were added to each of the filter tubes containing HEK 293 cells and 4.5 ml of Pro-CHO5 were added to each of the filter tubes containing CHO DG44 cells. Then, valproic acid was added to each of the tubes at the corresponding final concentration. The cells then were returned into the Kühner shaker and incubated at 37° C. in a 5% CO2 atmosphere under shaking at 180 rpm. […] The ELISA was performed as published in prior art. In short, Goat anti-human kappa light chain IgG (Biosource) was used for coating the ELISA-plates, and with AP-conjugated goat anti-human gamma chain IgG (Biosource) the synthesized IgG1 was detected. NPP was used as a substrate for the alkaline phosphatase. Absorption was measured at 405 nm against 490 nm using a microplate reader (SPECTRAmaxTM340; Molecular Devices, Palo Alto, Calif., USA).
A general note: An ELISA detects its analyte on a solid surface through an enzyme-linked reagent.

Consider `CCCC(CCC)C(=O)O` [VPA, valproic acid], for which the “Fold increase over control” value runs as follows: (1.3 mmol/l final VPA) 2.2 fold; (2.5 mmol/l final VPA) 4.1 fold; (4 mmol/l final VPA) 5.3 fold; (5 mmol/l final VPA) 4.3 fold; (7.5 mmol/l final VPA) 1.8 fold; (11.3 mmol/l final VPA) 0.9 fold. The Batch titer by setting is: (1.3 mmol/l final VPA) 33.0 ± 4.3 mg/L; (2.5 mmol/l final VPA) 61.8 ± 5.7 mg/L; (4 mmol/l final VPA) 79.5 ± 3.6 mg/L; (5 mmol/l final VPA) 64.5 ± 6.5 mg/L; (7.5 mmol/l final VPA) 27.0 ± 3.1 mg/L; (11.3 mmol/l final VPA) 13.5 ± 2.1 mg/L. For the setting “for batch titer, HEK293E cells, day 5”, the optimal final concentration entry is “around 4 mmol/l”.

For the origin of these results see patent publication US20090023186A1, “USE OF VALPROIC ACID FOR ENHANCING PRODUCTION OF RECOMBINANT PROTEINS IN MAMMALIAN CELLS” (EXCELLGENE SA, priority 2007, published 2009).
